Source: US7087610B2, “Benzothiazole antiviral agents” (priority 2004, dated 2006)

Tested on: single-round infectious reporter virus (HIV-1 envelope)
Experiment: HIV-1 single-round infectious luciferase reporter virus infection of HeLa CD4 cells
Format: cell-based
Conditions: Human immunodeficiency virus 1, HeLa, 72 h
Method: Cells: (virus production) human embryonic kidney cell line, 293, was propagated in Dulbecco's Modified Eagle Medium (Invitrogen, Carlsbad, Calif.) containing 10% fetal Bovine serum (FBS, Sigma, St. Louis, Mo.); (virus infection) human epithelial cell line, HeLa, expressing the HIV-1 receptor CD4 was propagated in Dulbecco's Modified Eagle Medium (Invitrogen, Carlsbad, Calif.) containing 10% fetal Bovine serum (FBS, Sigma, St. Louis, Mo.) and supplemented with 0.2 mg/mL Geneticin (Invitrogen, Carlsbad, Calif.).
Virus: single-round infectious reporter virus was produced by co-transfecting human embryonic kidney 293 cells with an HIV-1 envelope DNA expression vector and a proviral cDNA containing an envelope deletion mutation and the luciferase reporter gene inserted in place of HIV-1 nef sequences. Transfections were performed using lipofectAMINE PLUS reagent as described by the manufacturer (Invitrogen, Carlsbad, Calif.).
Experiment: HeLa CD4 cells were plated in 96 well plates at a cell density of 1×10^4 cells per well in 100 μl Dulbecco's Modified Eagle Medium containing 10 % fetal Bovine serum and incubated overnight. Compound was added in a 2 μl dimethylsulfoxide solution, so that the final assay concentration would be ≦10 μM. Single-round infectious reporter virus (100 μL) in Dulbecco's Modified Eagle Medium was then added to the plated cells and compound at an approximate multiplicity of infection (MOI) of 0.01, resulting in a final volume of 200 μl per well. Virally-infected cells were incubated at 37 degrees Celsius, in a CO2 incubator, and harvested 72 h after infection. Viral infection was monitored by measuring luciferase expression from viral DNA in the infected cells using a luciferase reporter gene assay kit, as described by the manufacturer (Roche Molecular Biochemicals, Indianapolis, Ind.). Infected cell supernatants were removed and 50 μl of lysis buffer was added per well. After 15 minutes, 50 μl of freshly-reconstituted luciferase assay reagent was added per well. Luciferase activity was then quantified by measuring luminescence using a Wallac microbeta luminescence reader.
The percent inhibition for each compound was calculated by quantifying the level of luciferase expression in cells infected in the presence of each compound as a percentage of that observed for cells infected in the absence of compound and subtracting such a determined value from 100. The effective concentration for fifty percent inhibition (EC50) was calculated with Microsoft Excel Xlfit curve fitting software. For each compound, curves were generated from percent inhibition calculated at 10 different concentrations by using a four paramenter logistic model (model 205).

SMILES	EC50 [µM]
C[C@@H]1CN(C(=O)c2ccccc2)CCN1C(=O)C(C#N)c1nc2ccccc2s1 (stereo partly drawn) [Example 1, (R)-N-(benzoyl)-3-methyl-N′-[(benzothiazol-2-yl)-2-cyanoacetyl]-piperazine]	< 1
C[C@@H]1CN(C(=O)c2ccccc2)CCN1C(=O)C(=O)c1nc2ccccc2s1 [Example 2, (R)-N-(benzoyl)-3-methyl-N′-[(benzothiazol-2-yl)-2-oxoacetyl]-piperazine]	< 1
C[C@@H]1CN(C(=O)c2ccccc2)CCN1C(=O)C(=O)c1ccc2scnc2c1 [Example 4, (R)-N-(benzoyl)-3-methyl-N′-[(benzothiazol-5-yl)-2-oxoacetyl]piperazine]	< 1
C[C@@H]1CN(C(=O)c2ccccc2)CCN1C(=O)C(=O)c1ccc2sc(-n3cccc3)nc2c1 [Example 7]	< 1
C[C@@H]1CN(C(=O)c2ccccc2)CCN1C(=O)C(=O)c1ccc2sc(N)nc2c1 [Example 8]	< 1
